Measurements taken from patent publication US20230285347A1, “Preterm Labour with Prostaglandin E2 Receptor Agonists” (IMPERIAL COLLEGE INNOVATIONS LIMITED, priority 2020, published 2023).
“Also recorded” adds a separate entry of the source.

Experiments:
Assay type in all cases: cell-based
human FLAG-EP2 = biological target: T1, human FLAG-EP2 (Homo sapiens, UniProt P43116); experiment: Intracellular Ca2+ release in HEK 293 cells stably expressing EP2 (Fluo-4, confocal; Gαq/11 readout); conditions: HEK 293 EP2 cells; butaprost 10 μM, AH13205 10 μM, PGN9856i 100 nM; vs vehicle; FIG. 3
T1 construct: FLAG; expressed in transfected cells
T1 sequence (P43116 whole entry): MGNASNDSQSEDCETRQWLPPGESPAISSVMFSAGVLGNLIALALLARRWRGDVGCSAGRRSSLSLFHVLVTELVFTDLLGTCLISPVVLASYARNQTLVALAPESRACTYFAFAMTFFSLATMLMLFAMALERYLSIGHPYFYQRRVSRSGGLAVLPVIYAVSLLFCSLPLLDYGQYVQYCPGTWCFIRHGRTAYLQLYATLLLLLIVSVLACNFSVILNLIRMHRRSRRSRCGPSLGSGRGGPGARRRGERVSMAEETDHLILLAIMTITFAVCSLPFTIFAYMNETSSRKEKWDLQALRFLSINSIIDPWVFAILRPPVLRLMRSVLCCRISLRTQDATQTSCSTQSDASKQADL
Procedure: To measure Gαq/11 activation, HEK 293 cells stably expressing human FLAG-EP2 were pre-labelled with a Ca2+ indicator dye and acutely stimulated with each ligand.
HEK 293 cells, prepared following the same methodology as outlined in Example 1, were seeded onto Mattek dishes with 14 mm by 1.5 mm glass coverslips. Cells were incubated with Fluo-4am Ca2+ indicator (ThermoFisher) as per manufacturer's instructions. […]. Time-series images were acquired using a Leica SP5 confocal microscope, Leica LAS AF image acquisition software and a 488 nm excitation laser. HEK cells were imaged using a 10× dry objective. EP2 agonists (butaprost 10 μM, AH13205 10 μM or PGN9856i 100 nM) were added following measurement of basal fluorescence. Raw files were analysed using Fiji Time series analyser plugin to find the maximal fluorescent intensity, which was then averaged across cells in each condition.
The maximal fluorescence intensity was measured by live confocal microscopy.

EP2 [1] = biological target: T2, EP2 (Homo sapiens, UniProt P43116); experiment: Intracellular cAMP in primary human myocytes from term pregnant non-labouring myometrium; conditions: butaprost 10 μM, AH13205 10 μM, PGN9856i 100 nM, FIG. 5
T2 construct: primary human myocytes cultured from term pregnant, non-labouring, myometrium; endogenous in cells; host or cells: primary human myometrial cells (myocytes) cultured from pregnant myometrium
T2 sequence (P43116 whole entry): as above
Procedure: (§1) In the myometrium EP2 is an important regulator of parturition. To assess if PGN9856i, butaprost and AH13205 induce similar second messenger profiles in the myometrium as HEK 293 cells, primary human myocytes cultured from term pregnant, non-labouring, myometrium, were treated with each ligand and intracellular cAMP, calcium and PGE2 release was measured.
Myometrial tissue was acquired at St. Mary's hospital, Queen Charlotte and Chelsea hospital and Charing Cross hospital, London. Tissue was obtained from women provided with informed written consent with the approval from the Riverside Research Ethics Committee (RREC 3357, 1997-5089, 19/LO/1657) and experiments were carried out under the committee's guidelines and recommendations. Tissues were obtained from term (38+0-40 weeks gestation) pregnant women undergoing elective caesarean from the upper margin of the incision made at the lower segment of the uterus, before or after the onset of labor. Tissues taken from women in early labour (<3 cm cervical dilation) or late labour (>3 cm cervical dilation) with/without induction with syntocinon, an oxytocin analogue. Tissue was only taken from uncomplicated, singleton pregnancies.
Tissue was stored at 4° C. in phosphate buffered saline until fine dissection with scalpels and dissociation at 37° C. for 1 hour in a sterile-filtered mix of Dulbecco's modified Eagle's medium (DMEM) (Sigma Aldrich)/Ham's F-12 Nutrient Mixture (Sigma Aldrich) and serum-free DMEM (Sigma Aldrich) (1:1 v/v) containing collagenase 1A (Sigma Aldrich)(1 mg/ml), collagenase X (Sigma Aldrich)(1 mg/ml) and bovine serum albumin (Sigma Aldrich) (2 mg/ml). […]
Confluent myometrial cells were treated with/without OT (100 nM) for 1 hour before 3 PBS washes and the addition of […] IBMX (3-isobutyl-1-methylxanthine) in PBS for 5 minutes at 37° C. […] Lysates were normalized to protein concentration determined by Coomassie (Bradford) Protein Assay Kit and analysed as per manufacturers' protocol (Cisbio Gαs dynamic assay) using a PHERAstar FSX.

EP2 [2] = biological target: T2, EP2; experiment: Intracellular calcium in myometrial cells with/without oxytocin pre-treatment; conditions: OT pre-treatment 1 hour, 100 nM; butaprost 10 μM, AH13205 10 μM, PGN9856i 100 nM; FIG. 11
Procedure: Intracellular calcium response in myometrial cells with/without OT pre-treatment (1 hour, 100 nM) stimulated with butaprost (10 μM), AH13205 (10 μM) or PGN9856i (100 nM). Data are the mean of the maximum fluorescence intensity for each cell measured normalised to background (F-FO). Shown as fold-change over butaprost response. One-way ANOVA with Dunnett's multiple comparison post-hoc test: ##p<0.01. One-sample t-test: *p<0.05.

human FLAG-tagged EP2 = biological target: T3, human FLAG-tagged EP2 (Homo sapiens, UniProt P43116); experiment: cAMP induction in HEK 293 cells stably expressing EP2 (Gαs readout); conditions: for cAMP efficacy at the maximal dose of each ligand: HEK 293 EP2 cells, 5 minutes of stimulation, no significant difference between ligands, FIG. 2
T3 construct: FLAG; expressed in transfected cells
T3 sequence (P43116 whole entry): as above
Procedure: EP2 is a dually coupled GPCR capable of activating downstream signalling pathways via Gαs (anti-labour inducing) and Gαq/11 (pro-labour inducing).
HEK 293 cells were maintained in DMEM (Dulbecco's Modified Eagle Medium) containing 10% fetal bovine serum and 100 μ/ml penicillin-streptomycin, and cultured in 75 cm flasks at 37° C. in 95% air and 5% CO2. Cells at 95% confluency were passaged using 0.25% trypsin with 0.02% EDTA in phosphate-buffered saline (PBS).
Confluent myometrial cells were treated with/without OT (100 nM) for 1 hour before 3 PBS washes and the addition of […] IBMX (3-isobutyl-1-methylxanthine) in PBS for 5 minutes at 37° C. This was exchanged for 0.5 μM IBMX in PBS plus either DMSO, butaprost (10 μM), AH13205 (10 μM) or PGN9856i (100 nM) for […]. Cells were lysed in Cisbio cAMP lysis buffer with 0.2% TritonX-100 and centrifuged for 15 minutes at 16,000 g. Lysates were normalized to protein concentration determined by Coomassie (Bradford) Protein Assay Kit and analysed as per manufacturers' protocol (Cisbio Gαs dynamic assay) using a PHERAstar FSX.

EP2 [3] = biological target: T2, EP2; experiment: PGE2 release by ELISA in primary myometrial cells; conditions: 6 hours, butaprost 10 μM, PGN9856i 100 nM, without OT, FIG. 7, FIG. 12
Excerpt: Tissue culture media collected and used for ELISA. Data shown as mean±SEM from at least 3 independent experiments. One-way ANOVA with Dunnet's multiple comparison post-hoc test: *p<0.05, **p<0.01. PGN9856i is unable to elicit PGE2 release in primary myometrial cells.
as §1
Myometrial tissue was acquired at St. Mary's hospital, Queen Charlotte and Chelsea hospital and Charing Cross hospital, London. Tissue was obtained from women provided with informed written consent with the approval from the Riverside Research Ethics Committee (RREC 3357, 1997-5089, 19/LO/1657) and experiments were carried out under the committee's guidelines and recommendations. […]
Myometrial cells were treated for 6-hours with EP2 agonist (butaprost 10 μM, AH13205 10 μM or PGN9856i 100 nM) or DMSO with/without 1-hour OT (100 nM) pre-treatment. […] Samples were defrosted at room temperature and vortexed before quantification of IL-6 concentrations via ELISA as per manufacturer's instructions (Enzo Lifesciences).

Row | Compound | intracellular Ca2+ release (maximal fluorescence intensity) (human FLAG-EP2) | release of intracellular cAMP (EP2 [1]) | calcium response with OT pre-treatment (EP2 [2]) | cAMP efficacy at the maximal dose of each ligand (human FLAG-tagged EP2) | EC50 for EP2 agonist-mediated induction of cAMP (relative potency) (human FLAG-tagged EP2; HEK 293 cells stably expressing human FLAG-tagged EP2, dose-response curves, FIG. 1) | PGE2 release (EP2 [3])
1 | CC(C)OC(=O)COc1cccc(NC(=O)c2cc(-c3cccc(F)c3)ccc2F)c1 [PGN9856i, propan-2-yl 2-(3-{3′,4-difluoro-[1,1′-biphenyl]-3-amido}phenoxy)acetate] | unable to elicit intracellular Ca2+ release | able to elicit release of intracellular cAMP | unable to elicit a response | equally efficacious | greatest potency, by three orders of magnitude | unable to activate; also recorded: unable to cause PGE2 release
2 | CCCC1([C@H](O)C/C=C/[C@H]2[C@H](O)CC(=O)[C@@H]2CCCCCCC(=O)OC)CCC1 [butaprost] | enhanced Ca2+ significantly above vehicle | able to elicit release of intracellular cAMP | significantly enhance the calcium response | equally efficacious |  | significantly enhanced PGE2 release
